Experimental data reported in patent publication US9738607B2, “Scalable process for the preparation of Sorafenib tosylate ethanol solvate and Sorafenib tosylate form III” (F.I.S.—FABBRICA ITALIANA SINTETICI S.P.A, priority 2015, dated 2017).

How the values were obtained:
[1] = Stability study of Sorafenib hemi-tosylate monohydrate under four humidity/temperature conditions, XRPD; assay type: physicochemical
Description: Four different humidity/temperature conditions were selected for this study: • Humidity (60% RH) at room temperature, • High humidity (94% RH) at room temperature, • Accelerated conditions of ICH guidelines (40° C.-70% RH), • 80° C. under vacuum.
Karl-Fischer and DSC/TGA analyses confirmed that Sorafenib hemi-tosylate is a monohydrate (water content 3.9% for KF and 2.7% for TGA—3.1% calc. for a monohydrate). This form was previously characterized in WO2009/092070 but, as Karl-Fischer and TGA were not performed, the presence of water in this crystalline form was not mentioned. […] However, at 80° C. under vacuum, traces of SORAFENIB free base were detected after almost three months.

[2] = Stability studies of Sorafenib tosylate form III (humidity/temperature storage); assay type: physicochemical; conditions: form III obtained from methanol solvate
Description: Stability studies of the free Sorafenib tosylate form III were already performed. These studies indicate that form III remained stable 3 months under accelerated conditions of ICH guideline (40° C.-70% RH) and less than 7 months at RT under 94% RH, while it remained stable at least 7 month at RT under 60% RH.
As the stability study of Sorafenib tosylate form III was performed with Sorafenib tosylate form III obtained from Sorafenib tosylate methanol solvate, only a minor difference in behavior could be possible with this new solid.

| time remained stable ([1]; 60% RH at room temperature) | time remained stable ([1]; 70% RH at 40° C.) | time remained stable ([1]; 94% RH at room temperature) | crystalline changes by XRPD ([1]; after 119 days at 60% RH at room temperature) | crystalline changes by XRPD ([1]; after 119 days at 70% RH at 40° C.) | crystalline changes by XRPD ([1]; after 119 days at 94% RH at room temperature) | time form III remained stable ([2]; RT under 60% RH) | time form III remained stable ([2]; RT under 94% RH) | time form III remained stable ([2]; accelerated conditions of ICH guideline (40° C.-70% RH)) [months] | Structure (SMILES) | crystalline changes by XRPD ([1]; after 88 days at 80° C. under vacuum) |
| --- | --- | --- | --- | --- | --- | --- | --- | --- | --- | --- |
| at least four | at least four | at least four | No crystalline changes were detected | No crystalline changes were detected | No crystalline changes were detected |  |  |  | CNC(=O)c1cc(Oc2ccc(NC(=O)Nc3ccc(Cl)c(C(F)(F)F)c3)cc2)ccn1.Cc1ccc(S(=O)(=O)O)cc1 [Sorafenib hemi-tosylate] | traces of Sorafenib free base were observed |
|  |  |  |  |  |  | at least 7 month | less than 7 months | 3 | CNC(=O)c1cc(Oc2ccc(NC(=O)Nc3ccc(Cl)c(C(F)(F)F)c3)cc2)ccn1.Cc1ccc(S(=O)(=O)O)cc1 [Sorafenib tosylate form III, 4-[4-({[4-chloro-3-(trifluoromethyl)phenyl]carbamoyl}amino)phenoxy]-N-methylpyridine-2-carboxamide 4-methylbenzenesulfonate (1:1)] |  |
